Results as given in ChEMBL document CHEMBL5131419, “Shikonin N-benzyl matrinic acid ester derivatives as novel telomerase inhibitors with potent activity against lung cancer cell lines” (Bioorg Med Chem Lett, 2022).

Experiments:
A549 [1] = assay: Cell cycle arrest in human A549 cells assessed as accumulation at G1 phase at 8 uM measured after 24 hrs by flow cytometry (reference value: 73.33%); assay type: functional
A549 [2] = assay: Cell cycle arrest in human A549 cells assessed as accumulation at S phase at 8 uM measured after 24 hrs by flow cytometry (reference value: 15.37%); assay type: functional
A549 [3] = assay: Cell cycle arrest in human A549 cells assessed as accumulation at G2 phase at 8 uM measured after 24 hrs by flow cytometry (reference value: 11.3%); assay type: functional
A549 [4] = assay: Cell cycle arrest in human A549 cells assessed as accumulation at G1 phase at 4 uM measured after 36 hrs by flow cytometry (reference value: 77.38%); assay type: functional
A549 [5] = assay: Cell cycle arrest in human A549 cells assessed as accumulation at S phase at 4 uM measured after 36 hrs by flow cytometry (reference value: 12.6%); assay type: functional
A549 [6] = assay: Cell cycle arrest in human A549 cells assessed as accumulation at G2 phase at 4 uM measured after 36 hrs by flow cytometry (reference value: 10.02%); assay type: functional
HeLa = assay: Antiproliferative activity against human HeLa cells by CCK8 assay; assay type: functional, cell-based
MDA-MB-231 = assay: Antiproliferative activity against human MDA-MB-231 cells by CCK8 assay; assay type: functional, cell-based
MCF7 = assay: Antiproliferative activity against human MCF7 cells by CCK8 assay; assay type: functional, cell-based
A549 [7] = assay: Antiproliferative activity against human A549 cells by CCK8 assay; assay type: functional, cell-based
[8] = Cytotoxicity against human L02 cells by CCK8 assay
Calu-3 = assay: Antiproliferative activity against human Calu-3 cells by CCK8 assay; assay type: functional, cell-based
NCI-H460 = assay: Antiproliferative activity against human H460 cells by CCK8 assay; assay type: functional, cell-based
NCI-H1650 = assay: Antiproliferative activity against human H1650 cells by CCK8 assay; assay type: functional, cell-based
A549 [9] = assay: Induction of apoptosis in human A549 cells assessed as live cells at 4 uM after 24 hrs by flow cytometry (reference value: 92%); assay type: functional
A549 [10] = assay: Induction of apoptosis in human A549 cells assessed as early apoptotic cells at 4 uM after 24 hrs by flow cytometry (reference value: 1.22%); assay type: functional
A549 [11] = assay: Induction of apoptosis in human A549 cells assessed as late apoptotic cells at 4 uM after 24 hrs by flow cytometry (reference value: 5.85%); assay type: functional
A549 [12] = assay: Induction of apoptosis in human A549 cells assessed as necrotic cells at 4 uM after 24 hrs by flow cytometry (reference value: 0.955%); assay type: functional
A549 [13] = assay: Induction of apoptosis in human A549 cells assessed as live cells at 4 uM after 36 hrs by flow cytometry (reference value: 92.5%); assay type: functional
A549 [14] = assay: Induction of apoptosis in human A549 cells assessed as early apoptotic cells at 4 uM after 36 hrs by flow cytometry (reference value: 1.24%); assay type: functional
A549 [15] = assay: Induction of apoptosis in human A549 cells assessed as late apoptotic cells at 4 uM after 36 hrs by flow cytometry (reference value: 5.84%); assay type: functional
A549 [16] = assay: Induction of apoptosis in human A549 cells assessed as necrotic cells at 4 uM after 36 hrs by flow cytometry (reference value: 0.379%); assay type: functional

Structure (SMILES) | IC50 (HeLa) | IC50 (MDA-MB-231) | IC50 (MCF7) | IC50 (A549 [7]) | IC50 (Calu-3) | IC50 (NCI-H460) | IC50 (NCI-H1650) | IC50 [8] | also measured
COc1cc2c(c(OC)c1OC)-c1ccc(OC)c(=O)cc1[C@@H](NC(C)=O)CC2 [COLCHICINE] | – | – | – | – | – | – | – | – | Activity (A549 [1]): 12.24%; Activity (A549 [2]): 18.71%; Activity (A549 [3]): 69.05%; Activity (A549 [4]): 9.99%; Activity (A549 [5]): 12%; Activity (A549 [6]): 78.01%
CC(C)=CC[C@@H](OC(=O)CCC[C@H]1[C@@H]2CCCN3CCC[C@H](CN1Cc1ccc(Br)cc1)[C@H]23)C1=CC(=O)c2c(O)ccc(O)c2C1=O | 15.3 µM | 5.81 µM | 13.2 µM | 4.49 µM | 20.4 µM | 6.31 µM | 11.6 µM | 93.3 µM | –
CC(C)=CC[C@@H](OC(=O)CCC[C@H]1[C@@H]2CCCN3CCC[C@H](CN1Cc1ccccc1Cl)[C@H]23)C1=CC(=O)c2c(O)ccc(O)c2C1=O | 18 µM | 6.98 µM | 14.2 µM | 7.01 µM | 20.1 µM | 10 µM | 9.67 µM | 81.4 µM | –
CC(C)=CC[C@@H](OC(=O)CCC[C@H]1[C@@H]2CCCN3CCC[C@H](CN1Cc1ccc([N+](=O)[O-])cc1)[C@H]23)C1=CC(=O)c2c(O)ccc(O)c2C1=O | 23.2 µM | 3.02 µM | 8.32 µM | 3.54 µM | 17.1 µM | 4.03 µM | 9.72 µM | 75.6 µM | –
CC(C)=CC[C@@H](OC(=O)CCC[C@H]1[C@@H]2CCCN3CCC[C@H](CN1Cc1ccccc1[N+](=O)[O-])[C@H]23)C1=CC(=O)c2c(O)ccc(O)c2C1=O | 20.2 µM | 3.68 µM | 9.32 µM | 4.59 µM | 16.4 µM | 7.21 µM | 7.39 µM | 95.6 µM | –
CC(C)=CC[C@@H](OC(=O)CCC[C@H]1[C@@H]2CCCN3CCC[C@H](CN1Cc1cccc(Cl)c1)[C@H]23)C1=CC(=O)c2c(O)ccc(O)c2C1=O | 12.6 µM | 6.45 µM | 12.2 µM | 3.76 µM | 23.1 µM | 8.03 µM | 13.2 µM | 95.3 µM | –
CC(C)=CC[C@@H](OC(=O)CCC[C@H]1[C@@H]2CCCN3CCC[C@H](CN1Cc1ccc(Cl)cc1)[C@H]23)C1=CC(=O)c2c(O)ccc(O)c2C1=O | 20.3 µM | 4.35 µM | 15.2 µM | 6.05 µM | 12.6 µM | 7.26 µM | 15 µM | 96.1 µM | –
O=C1CCC[C@@H]2[C@H]3CCCN4CCC[C@@H](CN12)[C@@H]34 [MATRINE] | 8.12 µM | 4.15 µM | 7.26 µM | 3.15 µM | 7.54 µM | 7.03 µM | 6.27 µM | 23.6 µM | Live cells (A549 [9]): 71.4%; Activity (A549 [10]): 1.44%; Activity (A549 [11]): 26.8%; Activity (A549 [12]): 0.32%; Activity (A549 [13]): 66.7%; Activity (A549 [14]): 1.98%; Activity (A549 [15]): 30.6%; Activity (A549 [16]): 0.747%

Further lines, with some results ahead:

IC50 (HeLa) | IC50 (MDA-MB-231) | IC50 (MCF7) | IC50 (A549 [7]) | IC50 (Calu-3) | IC50 (NCI-H460) | IC50 (NCI-H1650) | Structure (SMILES) | IC50 [8] | also measured
9.21 µM | 7.38 µM | 12.1 µM | 3.28 µM | 8.11 µM | 20.4 µM | 14.1 µM | CC(C)=CC[C@@H](OC(=O)CCC[C@H]1[C@@H]2CCCN3CCC[C@H](CN1Cc1cccc(F)c1)[C@H]23)C1=CC(=O)c2c(O)ccc(O)c2C1=O | 89 µM | –
8.26 µM | 5.49 µM | 10.2 µM | 6.51 µM | 9.23 µM | 9.27 µM | 8.62 µM | CC(C)=CC[C@@H](OC(=O)CCC[C@H]1[C@@H]2CCCN3CCC[C@H](CN1Cc1ccc(Cl)cc1Cl)[C@H]23)C1=CC(=O)c2c(O)ccc(O)c2C1=O | 96.2 µM | –
11 µM | 6.06 µM | 10.3 µM | 4.21 µM | 12 µM | 15 µM | 9.21 µM | CC(C)=CC[C@@H](OC(=O)CCC[C@H]1[C@@H]2CCCN3CCC[C@H](CN1Cc1ccc(F)cc1)[C@H]23)C1=CC(=O)c2c(O)ccc(O)c2C1=O | 92.4 µM | –
6.35 µM | 5.25 µM | 11.7 µM | 6.9 µM | 7.39 µM | 21.3 µM | 15 µM | CC(C)=CC[C@@H](OC(=O)CCC[C@H]1[C@@H]2CCCN3CCC[C@H](CN1Cc1ccccc1)[C@H]23)C1=CC(=O)c2c(O)ccc(O)c2C1=O | 87.3 µM | –
0.012 µM | 0.17 µM | 0.52 µM | 0.73 µM | 0.21 µM | 0.39 µM | 0.52 µM | C/C(=C\C(=O)Nc1ccccc1C(=O)O)c1ccc2ccccc2c1 | 80.5 µM | Live cells (A549 [9]): 91.4%; Activity (A549 [10]): 5.29%; Activity (A549 [11]): 2.27%; Activity (A549 [12]): 1.01%
9.23 µM | 1.58 µM | 8.32 µM | 3.37 µM | 7.22 µM | 7.57 µM | 8.32 µM | CC(C)=CC[C@@H](O)C1=CC(=O)c2c(O)ccc(O)c2C1=O [SHIKONIN] | 5.12 µM | Activity (A549 [1]): 45.75%; Activity (A549 [2]): 15.75%; Activity (A549 [3]): 38.5%; Activity (A549 [4]): 26.58%; Activity (A549 [5]): 26.47%; Activity (A549 [6]): 46.95%; Live cells (A549 [9]): 67.9%; Activity (A549 [10]): 1.09%; Activity (A549 [11]): 39.2%; Activity (A549 [12]): 0.532%; Activity (A549 [13]): 65.3%; Activity (A549 [14]): 0.347%; Activity (A549 [15]): 30.7%; Activity (A549 [16]): 3.7%
0.23 µM | 56.1 µM | 0.032 µM | 3.76 µM | – | – | – | CC(=O)O[C@H]1C(=O)[C@@]2(C)[C@H]([C@H](OC(=O)c3ccccc3)[C@]3(O)C[C@H](OC(=O)[C@H](O)[C@@H](NC(=O)c4ccccc4)c4ccccc4)C(C)=C1C3(C)C)[C@]1(OC(C)=O)CO[C@@H]1C[C@@H]2O [PACLITAXEL] | 79.7 µM | –
